Values of other authors in US20210236593A1, “METHODS OF SUPPORTING WEIGHT MAINTENANCE BY DECREASING THE ACTIVITY OF FAM46A” (SOCIETE DES PRODUITS NESTLE S.A., priority 2016, published 2021).
“Also recorded” adds a separate entry of the source. Where a name gives a salt, the structure may show the parent alone.

system: FAM46A; conditions: effect of the chemical on FAM46A expression

Row | Compound | Interaction Actions
1 | CC(=O)Nc1ccc(O)cc1 [Acetaminophen, reference compound] | Affects expression
2 | c1ccc2c(c1)cc1ccc3cccc4ccc2c1c34 [Benzo(a)pyrene] | Decreases expression
3 | NC(=O)N1c2ccccc2C=Cc2ccccc21 [Carbamazepine, reference compound] | Affects expression
4 | O=C(NN=C1CCCCC1)C(=O)NN=C1CCCCC1 [Cuprizone, reference compound] | Decreases expression
5 | Nc1ccn([C@@H]2O[C@H](CO)[C@@H](O)[C@@H]2O)c(=O)n1 [Cytarabine, reference compound] | Decreases expression
6 | CCCCOC(=O)c1ccccc1C(=O)OCCCC [Dibutyl Phthalate] | Decreases expression
7 | CCOC(=O)/C=C\C(=O)OCC [Diethyl maleate] | Decreases expression
8 | CN(C)C(=O)Nc1ccc(Cl)c(Cl)c1 [Diuron] | Decreases expression
9 | Nc1ccccc1NC(=O)c1ccc(CNC(=O)OCc2cccnc2)cc1 [Entinostat, reference compound] | Decreases expression
10 | N#Cc1nn(-c2c(Cl)cc(C(F)(F)F)cc2Cl)c(N)c1[S+]([O-])C(F)(F)F (stereo not drawn) [Fipronil] | Decreases expression
11 | OO [Hydrogen Peroxide] | Affects expression; also recorded: Decreases expression
12 | Cc1oncc1C(=O)Nc1ccc(C(F)(F)F)cc1 [Leflunomide, reference compound] | Decreases expression
13 | [CH3][Hg][Cl] [Methylmercuric chloride] | Decreases expression
14 | CCc1nn(CCCN2CCN(c3cccc(Cl)c3)CC2)c(=O)n1CCOc1ccccc1 [Nefazodone, reference compound] | Decreases expression
15 | O=C(O)C(F)(F)C(F)(F)C(F)(F)C(F)(F)C(F)(F)C(F)(F)C(F)(F)C(F)(F)C(F)(F)C(F)(F)F [Perfluoro-n-undecanoic acid] | Decreases expression
16 | Cc1cccc(Nc2cc(Cl)nc(SCC(=O)O)n2)c1C [Pirinixic acid, reference compound] | Decreases expression
17 | Clc1cc2c(cc1Cl)Oc1cc(Cl)c(Cl)cc1O2 [Tetrachlorodibenzodioxin] | Decreases expression
18 | CC1=C(/C=C/C(C)=C/C=C/C(C)=C/C(=O)O)C(C)(C)CCC1 [Tretinoin, reference compound] | Decreases expression
19 | CC(/C=C/C(=O)NO)=C\[C@@H](C)C(=O)c1ccc(N(C)C)cc1 [Trichostatin A, reference compound] | Decreases expression
20 | CCCC(CCC)C(=O)O [Valproic Acid, reference compound] | Decreases expression
21 | C=CC1(C)OC(=O)N(c2cc(Cl)cc(Cl)c2)C1=O (stereo not drawn) [Vinclozolin] | Affects expression; also recorded: Decreases expression
